Laboratory results as given in patent EP2582674B1 (Cymabay Therapeutics, Inc., priority 2010, dated 2011).

Target: T1, human GPR120 (Homo sapiens, UniProt Q5NUL3)
T1 construct: host or cells: HEK293 cells co-expressing Gqi5
T1 sequence (Q5NUL3 1-361): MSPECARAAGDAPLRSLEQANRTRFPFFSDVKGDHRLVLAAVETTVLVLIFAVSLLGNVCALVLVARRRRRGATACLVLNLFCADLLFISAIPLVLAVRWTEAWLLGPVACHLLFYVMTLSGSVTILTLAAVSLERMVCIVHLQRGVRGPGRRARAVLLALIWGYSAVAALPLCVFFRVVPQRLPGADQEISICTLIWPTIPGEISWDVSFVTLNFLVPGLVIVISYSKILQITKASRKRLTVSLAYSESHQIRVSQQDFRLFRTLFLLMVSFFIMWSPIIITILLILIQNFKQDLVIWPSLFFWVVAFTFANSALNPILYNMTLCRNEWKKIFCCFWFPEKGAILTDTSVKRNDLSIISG
Experiment: Intracellular Ca2+ assay in human GPR120 stable cell line (FLIPR Calcium 4 dye, Flexstation)
Assay type: cell-based
Conditions: HEK293, % activity at 2.5 µM compared to the maximal activity of the compound of Example 25 at 2.5 µM (=100%); HEK293 cells co-expressing Gqi5; read-out: % Activity (Ex. 25 Reference Compound)
Procedure: Human GPR120 stable cell line was purchased from Multispan Inc (26219 Eden Landing Road, Hayward, CA94545). This GPR120 cell line was generated in HEK293 cells co-expressing Gqi5. In this cell line, the Flag epitope tag (DYKDDDDK) was fused to the amino terminus of human GPR120 protein.
The concentration of intracellular Ca^2+ was measured as described below. Human GPR120 cells were plated in 96 well plates (Poly-D-Lysine coated black/clear Plate, Greiner Bio-One) at 70,000 cells per well and cultured overnight in conditions of 37°C and 5% CO2. A Ca^2+ assay dye stock solution was prepared by adding 10 mL of assay buffer (HBSS/20mM HEPES, pH 7.4) to FLIPR Calcium 4 Assay Bulk Kit (Molecular Devices). The 10 mL of Ca^2+ assay dye solution was prepared by further diluting 0.5 mL of Ca^2+ assay dye stock solution with 10 mL of assay buffer. The medium of the cells was removed and immediately 100 µL of the Ca^2+ assay dye solution was dispensed into each well followed by incubation at 37°C and 5% CO2 for 50 minutes to incorporate the Ca^2+ dye into the cells. The cell plate was then placed in the Flexstation (Molecular Devices) for 20 minutes at 37°C. Compounds were dissolved in 100% DMSO and diluted to desired concentrations with assay buffer and placed in the Flexstation simultaneously with the cell plate for 20 minute incubation at 37°C prior to reading. Fluorescence intensity was measured immediately following compound addition (25 µL/well) on the Flexstation at an excitation wavelength of 485 nm and an emission wavelength of 525 with 515 nm auto cutoff. The resulting increase in fluorescence intensities corresponds to increases in intracellular Ca^2+ levels.
Compounds were dissolved in 100% DMSO to a concentration of 20 mM to provide stock solutions. To determine activity against human GPR120, compounds were added with human GPR120 stably expressing cells (described above), at eight desired concentrations ranging from 0.00001 to 20 µM, in 96 well plates and fluorescence intensities were measured for 90 seconds with 2-second intervals. An EC50 value (concentration of the GPR120 agonist where 50% of the agonist's maximal activity is observed) was calculated using the changes (Max-Min) of fluorescence intensity.
To determine percent activity for a tested compound, the fluorescence intensity value obtained at a particular concentration were compared to the maximal fluorescence intensity value obtained for reference compound GW9508 (4-[[(3-phenoxyphenyl)methyl]amino]benzene propanoic acid; British Journal of Pharmacology 2006 148, 619-628) or the compound of Example 25. When GW9508 was used as the reference compound, the maximal activity of GW9508 at 6.7µM was designated as 100% activity. When the compound of Example 25 was used as the reference compound, the maximal activity of the compound of Example 25 at 2.5 µM was designated as 100% activity. Typically, the GW9508 activity reached a maximum at a concentration of approximately 6.7 µM and typically the compound of Example 25 reached a maximum activity at approximately 2.5µM. […]

Compound | activity at 2.5 µM
CC1(C)Cc2cc(Cl)cc(COc3ccc(CCC(=O)O)c(-c4ccccc4)c3)c2O1 [Example 71, 3-(5-((5-chloro-2,2-dimethyl-2,3-dihydrobenzofuran-7-yl)methoxy)-[1,1'-biphenyl]-2-yl)propanoic acid] | 134%
CCCc1cc(OCc2cc(Cl)cc3c2OC(C)(C)C3)c(F)cc1CCC(=O)O [Example 73, 3-(4-((5-chloro-2,2-dimethyl-2,3-dihydrobenzofuran-7-yl)methoxy)-5-fluoro-2-propylphenyl)propanoic acid] | 115%
CC(Cc1ccc(OCc2cc(Cl)cc3c2OC(C)(C)C3=O)c(C(F)(F)F)c1)C(=O)O (stereo not drawn) [Example 79, 3-(4-((5-chloro-2,2-dimethyl-3-oxo-2,3-dihydrobenzofuran-7-yl)methoxy)-3-(trifluoromethyl)phenyl)-2-methylpropanoic acid] | 3.85%
CC(Cc1ccc(OCc2cc(Cl)cc3c2OC(C)(C)C3O)c(F)c1)C(=O)O (stereo not drawn) [Example 80, 3-(4-((5-chloro-3-hydroxy-2,2-dimethyl-2,3-dihydrobenzofuran-7-yl)methoxy)-3-fluorophenyl)-2-methylpropanoic acid] | 86.2%
CC(Cc1ccc(OCc2cc(-c3ccc(Cl)cc3)cc3c2OC(C)(C)C3)cc1)C(=O)O (stereo not drawn) [Example 82, 3-(4-((5-(4-chlorophenyl)-2,2-dimethyl-2,3-dihydrobenzofuran-7-yl)methoxy)phenyl)-2-methylpropanoic acid] | 24%
COc1cccc(-c2cc(COc3ccc(CC(C)C(=O)O)cc3)c3c(c2)CC(C)(C)O3)c1 (stereo not drawn) [Example 86, 3-(4-((5-(3-methoxyphenyl)-2,2-dimethyl-2,3-dihydrobenzofuran-7-yl)methoxy)phenyl)-2-methylpropanoic acid] | 5.23%
CC(Cc1ccc(OCc2cc(Cl)cc3c2OC(C)(C)C3)c(CN(C)C)c1)C(=O)O (stereo not drawn) [Example 88, 3-(4-((5-chloro-2,2-dimethyl-2,3-dihydrobenzofuran-7-yl)methoxy)-3-((dimethylamino)methyl)phenyl)-2-methylpropanoic acid] | 119%
CCN(CC)c1cc(COc2ccc(CC(C)C(=O)O)cc2)c2c(c1)CC(C)(C)O2 (stereo not drawn) [Example 89, 3-(4-((5-(diethylamino)-2,2-dimethyl-2,3-dihydrobenzofuran-7-yl)methoxy)phenyl)-2-methylpropanoic acid] | 82.3%
CC(Cc1ccc(OCc2cc(-n3cnnn3)cc3c2OC(C)(C)C3)cc1)C(=O)O (stereo not drawn) [Example 90, 3-(4-((2,2-dimethyl-5-(1H-tetrazol-1-yl)-2,3-dihydrobenzofuran-7-yl)methoxy)phenyl)-2-methylpropanoic acid] | 75.9%
CC(Cc1ccc(OCc2ccc(F)c3c2CC(C)(C)O3)cc1)C(=O)O (stereo not drawn) [Example 91, 3-(4-((7-fluoro-2,2-dimethyl-2,3-dihydrobenzofuran-4-yl)methoxy)phenyl)-2-methylpropanoic acid] | 121%
CC1(C)Cc2c(COc3ccc4c(c3)CCC4CC(=O)O)ccc(F)c2O1 (stereo not drawn) [Example 94, 2-(5-((7-fluoro-2,2-dimethyl-2,3-dihydrobenzofuran-4-yl)methoxy)-2,3-dihydro-1H-inden-1-yl)acetic acid] | 98.5%

Next, values leading:

activity at 2.5 µM | Compound
125% | CC(Cc1ccc(OCc2c(F)ccc3c2CC(C)(C)O3)cc1)C(=O)O (stereo not drawn) [Example 96, 3-(4-((5-fluoro-2,2-dimethyl-2,3-dihydrobenzofuran-4-yl)methoxy)phenyl)-2-methylpropanoic acid]
102% | CC1(C)Cc2c(ccc(F)c2COc2c(F)cc(C3CC3C(=O)O)cc2F)O1 (stereo not drawn) [Example 99, 2-(3,5-difluoro-4-((5-fluoro-2,2-dimethyl-2,3-dihydrobenzofuran-4-yl)methoxy)phenyl)cyclopropanecarboxylic acid]
99% | Cc1cc(OCC(=O)O)ccc1OCc1cc(Cl)cc2c1OC(C)(C)C2 [Example 103, 2-(4-((5-chloro-2,2-dimethyl-2,3-dihydrobenzofuran-7-yl)methoxy)-3-methylphenoxy)acetic acid]
155% | CC(CC(=O)O)c1cc(F)c(OCc2cc(Cl)cc3c2OC(C)(C)C3)c(F)c1 (stereo not drawn) [Example 106, 3-(4-((5-chloro-2,2-dimethyl-2,3-dihydrobenzofuran-7-yl)methoxy)-3,5-difluorophenyl)butanoic acid]
144% | COc1cc(COc2ccc(CC(C)C(=O)O)cc2)c2c(c1)CC(C)(C)O2 (stereo not drawn) [Example 108, 3-(4-((5-methoxy-2,2-dimethyl-2,3-dihydrobenzofuran-7-yl)methoxy)phenyl)-2-methylpropanoic acid]
72.4% | CC(Cc1cc(F)c(OCc2cc(Cl)cc3c2OC(C)C3(C)C)c(F)c1)C(=O)O (stereo not drawn) [Example 109, 3-(4-((5-chloro-2,3,3-trimethyl-2,3-dihydrobenzofuran-7-yl)methoxy)-3,5-difluorophenyl)-2-methylpropanoic acid]
51.5% | CC(Cc1cc(F)c(OCc2cc(OCc3ccccc3)cc3c2OC(C)(C)C3)c(F)c1)C(=O)O (stereo not drawn) [Example 111, 3-(4-((5-(benzyloxy)-2,2-dimethyl-2,3-dihydrobenzofuran-7-yl)methoxy)-3,5-difluorophenyl)-2-methylpropanoic acid]
115% | CC1(C)Cc2cc(Cl)cc(COc3ccc4c(c3)CC(C(=O)O)C4)c2O1 (stereo not drawn) [Example 112, 5-((5-chloro-2,2-dimethyl-2,3-dihydrobenzofuran-7-yl)methoxy)-2,3-dihydro-1H-indene-2-carboxylic acid]
124% | CC1(C)Cc2cc(F)cc(COc3ccc4cc(C(=O)O)ccc4c3)c2O1 [Example 114, 6-((5-fluoro-2,2-dimethyl-2,3-dihydrobenzofuran-7-yl)methoxy)-2-naphthoic acid]
152% | CC(C)Oc1cc(OCc2cc(F)cc3c2OC(C)(C)C3)ccc1CCC(=O)O [Example 115, 3-(4-((5-fluoro-2,2-dimethyl-2,3-dihydrobenzofuran-7-yl)methoxy)-2-isopropoxyphenyl)propanoic acid]
146% | CC(C)Oc1cc(OCc2cc(Cl)cc3c2OC(C)(C)C3)ccc1CCC(=O)O [Example 116, 3-(4-((5-chloro-2,2-dimethyl-2,3-dihydrobenzofuran-7-yl)methoxy)-2-isopropoxyphenyl)propanoic acid]
104% | Cc1cc2cc(Cl)cc(COc3ccc(CC(C)C(=O)O)cc3F)c2o1 (stereo not drawn) [Example 120, 3-(4-((5-chloro-2-methylbenzofuran-7-yl)methoxy)-3-fluorophenyl)-2-methylpropanoic acid]
3.58% | CN(C)Cc1cc(OCc2cc(F)cc3c2OC(C)(C)C3)ccc1CCC(=O)O [Example 122, 3-(2-((dimethylamino)methyl)-4-((5-fluoro-2,2-dimethyl-2,3-dihydrobenzofuran-7-yl)methoxy)phenyl)propanoic acid]
47% | CC(=O)Nc1cc(COc2ccc(CC(C)C(=O)O)cc2)c2c(c1)CC(C)(C)O2 (stereo not drawn) [Example 123, 3-(4-((5-acetamido-2,2-dimethyl-2,3-dihydrobenzofuran-7-yl)methoxy)phenyl)-2-methylpropanoic acid]

Same assay, conditions: eight concentrations from 0.00001 to 20 µM; changes (Max-Min) of fluorescence intensity

Compound | EC50
CC(Cc1ccc(OCc2cc(Cl)cc3c2OC(C)(C)C3O)c(F)c1)C(=O)O (stereo not drawn) [Example 80, 3-(4-((5-chloro-3-hydroxy-2,2-dimethyl-2,3-dihydrobenzofuran-7-yl)methoxy)-3-fluorophenyl)-2-methylpropanoic acid] | 1000 to 10000 nM
CC(Cc1ccc(OCc2cc(Br)cc3c2OC(C)(C)C3)cc1)C(=O)O (stereo not drawn) [Example 81, 3-(4-((5-bromo-2,2-dimethyl-2,3-dihydrobenzofuran-7-yl)methoxy)phenyl)-2-methylpropanoic acid] | ≤ 1000 nM
CC(Cc1ccc(OCc2cc(-c3ccc(Cl)cc3)cc3c2OC(C)(C)C3)cc1)C(=O)O (stereo not drawn) [Example 82, 3-(4-((5-(4-chlorophenyl)-2,2-dimethyl-2,3-dihydrobenzofuran-7-yl)methoxy)phenyl)-2-methylpropanoic acid] | 1000 to 10000 nM

Next, values leading:

EC50 | Compound
1000 to 10000 nM | CC(Cc1cc(F)c(OCc2cc(OCc3ccccc3)cc3c2OC(C)(C)C3)c(F)c1)C(=O)O (stereo not drawn) [Example 111, 3-(4-((5-(benzyloxy)-2,2-dimethyl-2,3-dihydrobenzofuran-7-yl)methoxy)-3,5-difluorophenyl)-2-methylpropanoic acid]
1000 to 10000 nM | CC(=O)Nc1cc(COc2ccc(CC(C)C(=O)O)cc2)c2c(c1)CC(C)(C)O2 (stereo not drawn) [Example 123, 3-(4-((5-acetamido-2,2-dimethyl-2,3-dihydrobenzofuran-7-yl)methoxy)phenyl)-2-methylpropanoic acid]
